From ChEMBL document CHEMBL5257035, “Nucleoside Derived Antibiotics to Fight Microbial Drug Resistance: New Utilities for an Established Class of Drugs?” (J Med Chem, 2016)
In brackets after ≈: the same amount, converted by molar mass.

Legend:
Pseudomonas aeruginosa [1] = experiment: Antibacterial activity against Pseudomonas aeruginosa ATCC 15442 assessed as bacterial growth inhibition measured after 48 hrs by micro-broth dilution method; format: functional
Enterococcus faecalis = experiment: Antimicrobial activity against Enterococcus faecalis ATCC 29212 assessed as microbial growth inhibition; format: functional, organism-based
Pseudomonas aeruginosa [2] = experiment: Antimicrobial activity against Pseudomonas aeruginosa ATCC 15692 assessed as microbial inhibition; format: functional, organism-based
Escherichia coli = experiment: Antibacterial activity against Escherichia coli K12 assessed as bacterial growth inhibition by broth microdilution method; format: functional
Pseudomonas aeruginosa [3] = experiment: Antibacterial activity against Pseudomonas aeruginosa assessed as inhibition of bacterial growth incubated for 24 hrs by broth microdilution method; format: functional
Proline--tRNA ligase = Proline--tRNA ligase (Escherichia coli, UniProt P16659); experiment: Binding affinity to Escherichia coli K12 Prolyl-tRNA synthetase
Proline--tRNA ligase, sequence (P16659 whole entry): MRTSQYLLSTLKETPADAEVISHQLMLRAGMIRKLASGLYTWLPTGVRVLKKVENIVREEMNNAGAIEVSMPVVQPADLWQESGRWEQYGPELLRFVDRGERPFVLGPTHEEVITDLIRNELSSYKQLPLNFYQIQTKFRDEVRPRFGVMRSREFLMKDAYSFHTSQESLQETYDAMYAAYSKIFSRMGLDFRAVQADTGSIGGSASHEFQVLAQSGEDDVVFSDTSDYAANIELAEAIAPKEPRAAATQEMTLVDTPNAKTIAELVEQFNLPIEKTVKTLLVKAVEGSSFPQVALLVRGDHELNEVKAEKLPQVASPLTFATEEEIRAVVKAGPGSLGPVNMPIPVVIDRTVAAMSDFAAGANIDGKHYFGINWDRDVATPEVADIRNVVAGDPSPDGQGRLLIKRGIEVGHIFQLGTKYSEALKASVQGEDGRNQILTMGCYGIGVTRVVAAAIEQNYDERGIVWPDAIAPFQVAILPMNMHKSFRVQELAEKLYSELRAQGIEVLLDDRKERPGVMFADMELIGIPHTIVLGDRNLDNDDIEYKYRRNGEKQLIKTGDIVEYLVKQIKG

[4] = Inhibition of Bacillus stearothermophilus tyrosyl tRNA synthetase; design: species or system Geobacillus stearothermophilus
Pseudomonas aeruginosa [5] = experiment: Antibacterial activity against Pseudomonas aeruginosa assessed as reduction in bacterial growth; format: functional
[6] = target: Phospho-N-acetylmuramoyl-pentapeptide-transferase (Bacillus subtilis (strain 168), UniProt Q03521); experiment: Inhibition of Bacillus subtilis MraY
Phospho-N-acetylmuramoyl-pentapeptide-transferase, sequence (Q03521 whole entry): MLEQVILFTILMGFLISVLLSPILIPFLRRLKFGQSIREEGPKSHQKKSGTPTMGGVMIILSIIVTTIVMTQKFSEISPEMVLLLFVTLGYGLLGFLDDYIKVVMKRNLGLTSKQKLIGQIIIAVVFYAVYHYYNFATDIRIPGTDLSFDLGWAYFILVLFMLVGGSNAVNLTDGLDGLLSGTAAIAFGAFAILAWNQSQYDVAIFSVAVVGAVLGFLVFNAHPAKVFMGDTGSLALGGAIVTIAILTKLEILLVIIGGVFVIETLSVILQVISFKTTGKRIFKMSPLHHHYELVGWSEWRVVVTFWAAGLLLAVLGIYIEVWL

Pseudomonas aeruginosa [7] = experiment: Antimicrobial activity against Pseudomonas aeruginosa ATCC 27853 assessed as inhibition of microbial growth
Pseudomonas aeruginosa [8] = experiment: Antibacterial activity against Pseudomonas aeruginosa assessed as bacterial growth reduction; format: functional
[9] = test system: Mycolicibacterium smegmatis; experiment: Antimycobacterial activity against Mycobacterium smegmatis assessed as microbial growth inhibition; format: functional
[10] = Inhibition of Escherichia coli RNA polymerase
[11] = test system: Mycobacterium tuberculosis; experiment: Antibacterial activity against Mycobacterium tuberculosis ATCC 27294 assessed as reduction in bacterial growth by LORA method; format: functional
[12] = Inhibition of Bacterial MraY; design: species or system Bacteria
Streptococcus pneumoniae = experiment: Antibacterial activity against Streptococcus pneumoniae B1 assessed as bacterial growth inhibition; format: functional
[13] = target: Phospho-N-acetylmuramoyl-pentapeptide-transferase (Bacillus subtilis (strain 168)) (UniProt Q03521); experiment: Inhibition of Bacillus subtilis MraY at 2.3 uM relative to control
Phospho-N-acetylmuramoyl-pentapeptide-transferase (Bacillus subtilis (strain 168)), sequence (Q03521 whole entry): as above

[14] = test system: Mycobacterium tuberculosis; experiment: Antimycobacterial activity against Mycobacterium tuberculosis K4 assessed as reduction in bacterial activity; format: functional

SMILES: C[C@H](N)C(=O)N(C)C[C@H](NC(=O)[C@H](C)NC(=O)N[C@@H](Cc1c[nH]c2ccccc12)C(=O)O)C(=O)NCC1C[C@@H](O)[C@H](n2ccc(=O)[nH]c2=O)O1 (some centres not stated)
- MIC (Pseudomonas aeruginosa [1]): 64 µg/mL (≈ 91.5 µM)

SMILES: CCCC(C)CC(C)CC(C)/C=C(C)/C=C/C(O)C(C)C(=O)OC1C(O)CN2CC1NC[C@H]1O[C@@H](OC([C@H]3O[C@@H](n4ccc(=O)[nH]c4=O)[C@H](O)[C@@H]3OS(=O)(=O)O)C2C(=O)O)[C@H](O)[C@@H]1O (some centres not stated)
- IC50 (Enterococcus faecalis): 0.012 µg/mL (≈ 0.0129 µM)
- IC50 (Pseudomonas aeruginosa [2]): 0.065 µg/mL (≈ 0.0697 µM)

SMILES: Nc1nc2c(ncn2[C@@H]2O[C@H](CO)[C@@H](O)[C@H]2O)c(=O)o1
- MIC (Escherichia coli): 12.5 µg/mL (≈ 44 µM)

SMILES: C[C@H](NC(=O)N[C@@H](Cc1cccc(Cl)c1)C(=O)O)C(=O)N[C@H](C(=O)N/C=C1/C[C@@H](O)[C@H](n2ccc(=O)[nH]c2=O)O1)[C@H](C)NC(=O)[C@@H](N)Cc1ccc(O)cc1
- MIC (Pseudomonas aeruginosa [3]): 64 µg/mL (≈ 81.5 µM)

SMILES: Nc1ncnc2c1ncn2[C@@H]1O[C@H](COS(=O)(=O)NC(=O)[C@@H]2CCCN2)[C@@H](O)[C@H]1O
- Ki (Proline--tRNA ligase): 4.3 nM

SMILES: Nc1ncnc2c1ncn2[C@@H]1O[C@H](COS(=O)(=O)NC(=O)[C@@H](N)Cc2ccc(O)cc2)[C@@H](O)[C@H]1O
- Ki [4]: 26 nM

SMILES: Nc1ncnc2c1ncn2[C@@H]1O[C@H](COP(=O)(O)OCC(N)Cc2ccc(O)cc2)[C@@H](O)[C@H]1O (some centres not stated)
- Ki [4]: 11 nM

SMILES: Nc1ncnc2c1ncn2[C@@H]1O[C@H](COS(=O)(=O)NC(=O)[C@H]2CCCN2)[C@@H](O)[C@H]1O
- Ki (Proline--tRNA ligase): 490 nM

SMILES: Cc1cn([C@H]2C[C@H](N=[N+]=[N-])[C@@H](CO)O2)c(=O)[nH]c1=O [ZIDOVUDINE]
- MIC (Escherichia coli): 10 µg/mL (≈ 37.4 µM)

SMILES: C[C@@H](NC(=O)N[C@@H](Cc1c[nH]c2ccccc12)C(=O)O)C(=O)N[C@H](C(=O)N/C=C1/C[C@@H](O)[C@H](n2ccc(=O)[nH]c2=O)O1)[C@H](C)N(C)C(=O)[C@@H](N)CN
- MIC (Pseudomonas aeruginosa [5]): 32 µg/mL (≈ 44 µM)
- IC50 [6]: 22 nM
- MIC (Pseudomonas aeruginosa [7]): 4 µg/mL
- MIC (Pseudomonas aeruginosa [8]): 16 µg/mL (≈ 22 µM)

SMILES: CO[C@H]1[C@@H](O)[C@H](n2ccc(=O)[nH]c2=O)O[C@@H]1[C@@H](O[C@@H]1OC(C(=O)N[C@H]2CCCCNC2=O)=C[C@@H](O)[C@H]1O)C(N)=O
- MIC [9]: 3 µg/mL (≈ 5.27 µM)
- IC50 [10]: 100 nM
- MIC [11]: 100 µg/mL (≈ 176 µM)
- Ki [12]: 0.01 µg/mL (≈ 0.0176 µM)
- MIC (Streptococcus pneumoniae): 12.5 µg/mL (≈ 21.9 µM)

SMILES: C[C@H](N)C(=O)N(C)CCOC[C@H]1O[C@@H](n2ccc(=O)[nH]c2=O)[C@H](O)[C@@H]1O
- inhibition [13]: 97%

SMILES: CN1C[C@H](O)[C@@H](C(=O)O)N(C)C(=O)[C@@H]1[C@H](O[C@@H]1O[C@H](CN)[C@@H](O)[C@H]1O)[C@H]1O[C@@H](n2ccc(=O)[nH]c2=O)[C@H](O)[C@@H]1O [CAPRAZOL]
- MIC [14]: 3.13 µg/mL (≈ 5.44 µM)

SMILES: C[C@@H](NC(=O)NC(Cc1cccc(O)c1)C(=O)O)C(=O)N[C@H](C(=O)N/C=C1/C[C@@H](O)[C@H](n2ccc(=O)[nH]c2=O)O1)[C@H](C)N(C)C(=O)[C@@H](N)C(N)c1cccc(O)c1 (some centres not stated)
- MIC (Pseudomonas aeruginosa [7]): 32 µg/mL
